These results are taken from paper PMC11990615 (Molecules, 2025).

In general, IC50 refers to the concentration that gives 50% inhibition. Read a low IC50 as inhibition by little substance. Broadly, the inhibition is the change of the read-out against control, counted positive when it falls. A word on the pKa: it is the pH at which an ionisable group is half protonated.

“And” between values parts separate entries of the source, which are not always exact repeats. Equal values may be shown once.

In data set [1] the test system is Colletotrichum gloeosporioides. Put plainly: Fungicidal activity, mycelial growth inhibition on PDA plates. As to conditions: for Inhibition rate: at a concentration of 26.5 μmol/L; for IC50: mycelial growth, 96 h dark incubation at 26 °C; for inhibition at 26.5 µM: read-out: Inhibition rate.
Protocol: Pure water was used as a negative control. Mycelial plugs with a diameter of 5 mm were positioned in the middle of PDA plates that held various sample concentrations. Every treatment was carried out three times. […] The formula used to compute the suppression of mycelial growth was inhibition (%) = (Dc − Dt)/(Dc − 5) × 100%, where Dc and Dt are the diameters in millimeters of the treatment colony and the control colony, respectively. […] The tests, in turn, constructed t-statistics and determined the signifi-cance of differences between groups.
Data set [2] is described as follows: Photostability under UV irradiation (photolysis kinetics). The following applies: aqueous solution 26.6 μmol/L, 15 W UV lamp 254 nm, 25 °C; for half-life at 26.6 μmol/L: read-out: t1/2, photolysis half-life (converted). The data set is classed as physicochemical. As for the experimental part:
Photostability evaluation. […] At different time intervals (0, 0.5, 1, 1.5, 2, 3, 4, and 6 h), 100 μL of the solutions was accurately removed from the vials, diluted tenfold with methanol, and analyzed by HPLC-MS/MS. Instrument specifications are detailed in the Supporting Information.
As dark controls, aluminum foil-wrapped quartz tubes were used to prevent the impact of outside variables. […] The coefficient of determination r^2 was used to describe the goodness of fit of the curves. The half-lives t1/2 of the chemicals were calculated by the following formula:(2) t1/2=−ln(0.5)/K

Data set [3] in a line: Interfacial surface tension, Wilhelmy plate method. The data set is classed as physicochemical. As to conditions: saturated aqueous solution, 25 °C; no unit printed with the values (method: mN/m). As for the experimental part: Pure water’s surface tension was used to calibrate the device. After cleaning and drying, the sensing platinum plate was slowly oriented perpendicular to the solution interface. The plate will stop when the liquid surface tension and other relevant forces reach a balance. The interfacial surface tension values of the test chemicals were noted. Each compound was determined with three parallel samples.

The conditions of data set [4]: weak base; no reference given; cited from earlier work.
The next data set has as its system aquatic organisms. Details: method as in earlier work. The following applies: cited from earlier work.
Data set [5] in a line: Octanol-water partition coefficient, shake-flask method. The data set is classed as physicochemical. The following applies: n-octanol/water, 25 °C. As for the experimental part: Initially, a n-octanol solution containing 2000 mg/L of the compound was mixed with water in centrifuge tubes at 1:2, 1:1, and 2:1 volume ratios, with two parallel samples for each ratio. All tubes were shaken at a constant temperature of 25 °C for 3 h. Subsequently, the samples were centrifuged at 4000 rpm for 10 min. The octanol and aqueous phases were then carefully collected and diluted tenfold with methanol, and their concentrations were measured using HPLC-UV and HPLC-MS/MS, respectively. Instrument specifications are detailed in the Supporting Information.

On the set-up of data set [6]: method as in earlier work. As to conditions: cited from earlier work.
[7] abbreviates: Colletotrichum gloeosporioides, 96 h.

As to `CCCCCCCC/C=C\CCCCCCCC(=O)[O-].[Na+]` [Sodium oleate], in data set [1], the Inhibition rate is listed as 3.9 ± 2.6%.

The molecule `O=C([O-])c1ccccc1.[Na+]` [Sodium benzoate] registered an Inhibition rate in data set [1] of 3.0 ± 1.1%.

Take `CC(O)C(=O)O.CCCN(CCOc1c(Cl)cc(Cl)cc1Cl)C(=O)n1ccnc1` [[Pro][LacA]] [listing 1 of 2 here]: the IC50 in data set [1] (setting [7]) came out at 0.81 µg/mL. Moreover, in data set [2], the half-life at 26.6 μmol/L is 1.77 h.

For the molecule `O=C(O)c1ccccc1` [Benzoic acids, Benzoic acid], the inhibition at 26.5 µM in data set [1] (Colletotrichum gloeosporioides) amounted to 7.2 ± 1.2%.

With `CCCN(CCOc1c(Cl)cc(Cl)cc1Cl)C(=O)n1ccnc1.O=C(O)c1ccccc1O` [[Pro][SalA]] [listing 1 of 2 here], it took 1940 nM to reach half-maximal inhibition in data set [1] (IC50). In addition, the “K, first-order photolysis rate constant” value in data set [2] was determined as 0.401 h⁻¹.

Regarding `O=C([O-])c1ccccc1O.[Na+]` [Sodium Salicylate], the Inhibition rate in data set [1] came out at 2.0 ± 2.7%.

As for `CC(=O)C(=O)[O-].[Na+]` [Sodium pyruvate], in data set [1], the Inhibition rate is 3.5 ± 0.2%.

On to `CCCCCCCC/C=C\CCCCCCCC(=O)O` [Oleic acids, Oleic acid], for which the inhibition at 26.5 µM in data set [1] (Colletotrichum gloeosporioides) came to 3.4 ± 1.3%.

In data set [1], `CC(=O)[O-].[Na+]` [Sodium acetate] gave an Inhibition rate of 5.9 ± 0.5%.

Consider `CCCCCCCCC(=O)O` [Nonanoic acids, Nonanoic acid], for which the inhibition at 26.5 µM in data set [1] (Colletotrichum gloeosporioides) worked out at 1.8 ± 1.3%.

The molecule `CCCCCCCCC(=O)[O-].[Na+]` [Sodium nonanoate] returned an Inhibition rate in data set [1] of 2.9 ± 0.3%.

`CC(O)C(=O)O` (stereo not shown) [Lactic acids, Lactic acid]: the inhibition at 26.5 µM in data set [1] (Colletotrichum gloeosporioides) came out at 6 ± 1%.

For `CC(O)C(=O)[O-].[Na+]` (stereo not shown) [Sodium lactate], the Inhibition rate in data set [1] stood at 4.0 ± 0.4%.

`CC(=O)O` [Acetic acids, Acetic acid]: in data set [1], the Inhibition rate was determined as 8.3 ± 2.3%.

`O=C(O)c1ccccc1O` [Salicylic acids, Salicylic acid]: the inhibition at 26.5 µM in data set [1] (Colletotrichum gloeosporioides) was found to be 4.5 ± 0.3%.

Take `CCCN(CCOc1c(Cl)cc(Cl)cc1Cl)C(=O)n1ccnc1` [Prochloraz, N-propyl-N-(2,4,6-trichlorophenoxy)ethyl-imidazole-1-carboxamide]: the Interfacial surface tension in data set [3] is listed as 51.75. Besides, in data set [1] (setting [7]), the IC50 was 1.39 µM and 0.52 µg/mL. In addition, the inhibition at 26.5 µM in data set [1] (Colletotrichum gloeosporioides) stood at 100 ± 0.1%. Moreover, in data set [4], the pKa is listed as 3.8. For the same molecule, the “Concentrations at which embryonic mortality and developmental effects were observed” value in the data set with aquatic organisms was 2400 ng/mL and 4800 ng/mL. Moreover, in data set [2], the “K, first-order photolysis rate constant” value was determined as 0.641 h⁻¹ and the half-life at 26.6 μmol/L was 1.08 h. In data set [5], this molecule displayed a logKow of 3.52. The “Photolysis half-life in water” value in data set [6] is 36 h.

In turn, `CC(O)C(=O)O.CCCN(CCOc1c(Cl)cc(Cl)cc1Cl)C(=O)n1ccnc1` [[Pro][LacA]] [listing 2 of 2 here] returned an IC50 in data set [1] of 1740 nM. In data set [2], the “K, first-order photolysis rate constant” value worked out at 0.391 h⁻¹.

For the molecule `CC(=O)C(=O)O.CCCN(CCOc1c(Cl)cc(Cl)cc1Cl)C(=O)n1ccnc1` [[Pro][PyrA]], in data set [2], the “K, first-order photolysis rate constant” value amounted to 0.383 h⁻¹ and the “t1/2, photolysis half-life” value turned out to be 1.81 h.

The molecule `CCCN(CCOc1c(Cl)cc(Cl)cc1Cl)C(=O)n1ccnc1` [[Pro][OleA]] displayed an IC50 in data set [1] of 2020 nM.

In turn, `CCCN(CCOc1c(Cl)cc(Cl)cc1Cl)C(=O)n1ccnc1.O=C(O)c1ccccc1` [[Pro][BenA]] [listing 1 of 2 here] gave an IC50 in data set [1] of 2090 nM. For the same molecule, the “K, first-order photolysis rate constant” value in data set [2] was 0.774 h⁻¹.

The molecule `O=C([O-])/C=C/c1ccccc1.[Na+]` [Sodium cinnamate] showed an Inhibition rate in data set [1] of 2.8 ± 1.1%.

In data set [1] (setting [7]), `CC(=O)O.CCCN(CCOc1c(Cl)cc(Cl)cc1Cl)C(=O)n1ccnc1` [[Pro][AceA]] [listing 1 of 2 here] returned an IC50 of 0.53 µg/mL. For the same molecule, the half-life at 26.6 μmol/L in data set [2] is 1.73 h.

Consider `CCCN(CCOc1c(Cl)cc(Cl)cc1Cl)C(=O)n1ccnc1.O=C(O)/C=C/c1ccccc1` [[Pro][CinA]], for which the IC50 in data set [1] is 2 µM and 1.05 mg/L. For the same molecule, the “K, first-order photolysis rate constant” value in data set [2] came to 0.305 h⁻¹.

Consider `O=C(O)/C=C/c1ccccc1` [Cinnamic acids, Cinnamic acid], for which the inhibition at 26.5 µM in data set [1] (Colletotrichum gloeosporioides) turned out to be 7.5 ± 2.4%.

On to `CCCN(CCOc1c(Cl)cc(Cl)cc1Cl)C(=O)n1ccnc1.O=C(O)c1ccccc1O` [[Pro][SalA]] [listing 2 of 2 here], for which, in data set [1] (setting [7]), half-maximal inhibition (IC50) required 1 µg/mL. Moreover, the half-life at 26.6 μmol/L in data set [2] is 1.73 h.

Take `CC(=O)C(=O)O` [Pyruvic acids, Pyruvic acid]: the inhibition at 26.5 µM in data set [1] (Colletotrichum gloeosporioides) was found to be 4.5 ± 0.4%.

In data set [1], `CC(=O)O.CCCN(CCOc1c(Cl)cc(Cl)cc1Cl)C(=O)n1ccnc1` [[Pro][AceA]] [listing 2 of 2 here] showed an IC50 of 1220 nM. The “K, first-order photolysis rate constant” value in data set [2] was 0.400 h⁻¹.

For `CCCN(CCOc1c(Cl)cc(Cl)cc1Cl)C(=O)n1ccnc1.O=C(O)c1ccccc1` [[Pro][BenA]] [listing 2 of 2 here], the IC50 in data set [1] (setting [7]) was 1.04 µg/mL. Also, the half-life at 26.6 μmol/L in data set [2] is 0.9 h.

As for `CCCCCCCCC(=O)O.CCCN(CCOc1c(Cl)cc(Cl)cc1Cl)C(=O)n1ccnc1` [[Pro][NonA]], the Interfacial surface tension in data set [3] was found to be 41.24. Further, in data set [2], the “K, first-order photolysis rate constant” value worked out at 0.438 h⁻¹ and the “t1/2, photolysis half-life” value was 1.58 h.

In data set [3], `CCCCCCCCC=CCCCCCCCC(=O)O.CCCN(CCOc1c(Cl)cc(Cl)cc1Cl)C(=O)n1ccnc1` [[Pro][OleA]] gave an Interfacial surface tension of 42.53. The IC50 in data set [1] came to 1.33 µg/mL. Also, the “K, first-order photolysis rate constant” value in data set [2] was found to be 0.552 h⁻¹.
